How the values were obtained:
MCF-7 cells [1] = assay: Colony formation assay; format: cell-based, human; settings: 24 h treatment
Experimental: To assess the long-term antiproliferative potential of compound 3g, a colony formation assay was conducted using MCF-7 breast cancer cells.
MCF-7 cells (1000 cells/well) were counted and seeded in 6-well plates. After being cultured for 24 h at 37 °C, the medium was replaced with medium added with compound 3g at the indicated concentration. After 24 h of treatment, the medium was changed to normal. After being cultured for another 10–14 days, the colonies were fixed with 4% paraformaldehyde for 30 min and stained with 0.1% crystal violet for 15 min. Following washing with PBS, the colonies were then photographed and quantified using Image J 1.54g.
Figure 3 Inhibition of MCF-7 Cell Colony Formation by Compound 3g. (A) 3g inhibited the colony formation of MCF-7 cells at different concentrations in a dose-dependent manner. (B) Colony units in the different groups after treatment with 3g. Number of colonies was counted after treating MCF-7 cells with the indicated concentration of compound 3g for 24 h (n = 3, * p < 0.05, ** p < 0.01 vs. DMSO control, one-way ANOVA).

MCF-7 cells [2] = assay: Transwell migration assay; format: cell-based, human; settings: 24 h exposure, dose-dependent
Experimental: (§1) The impact of compound 3g on MCF-7 cell migration was assessed using wound healing and transwell migration assays.
MCF-7 cells were seeded into six-well culture plates at a density of 5 × 10^5 cells per well for 24 h. After treatment with compounds 3g at different concentrations for 24 h, cells were harvested and inoculated on transwell filters ([…] pore size, Millipore, Billerica, MA, USA) in 24-well culture plates. The cells in the top chamber were cultured in the FBS-free medium, and those in the bottom chamber were cultured in the medium containing 10% FBS. The plates were cultivated for an additional 48 h, and the cells that had migrated to the bottom of the top chambers were fixed with 4% paraformaldehyde and then stained with 0.1% crystal violet. Images of migrated cells were obtained using an inverted microscope (Olympus IX73, Olympus Corporation, Tokyo, Japan).
Figure 4 Effect of compound 3g on the migration of MCF-7 breast cancer cells. (A) 3g inhibited the migration of MCF-7 cells at different concentrations in a dose-dependent manner. Representative images of wound healing were captured by an inverted microscope at 0 h and 24 h treatment. Scale bar = 200 μm. (B) Wound closure percentages in the different groups after treatment with 3g for 24 h. (C) Results of the transwell migration assay. […]

A549 cells = assay: CCK-8 antiproliferative assay, A549; format: cell-based; settings: Homo sapiens, cell viability (CCK-8), 48 h
Experimental: To evaluate the anticancer potential of the synthesized compounds, a panel of six human and murine cancer cell lines representing different tissue origins was selected, including MCF-7 (human breast adenocarcinoma), MDA-MB-231 (human triple-negative breast cancer), A549 (human non-small cell lung cancer), HeLa (human cervical cancer), A375 (human melanoma), and B16-F10 (murine melanoma) (Table 2). […] DMSO was used as the vehicle control, and all experiments were performed in triplicate to ensure reproducibility.
Human breast cancer cells (MCF-7), human lung cancer cells (A549), human cervical cancer cells (HeLa), human triple-negative breast cancer cells (MDA-MB-231), and human malignant melanoma cells (A375) were cultured in DMEM. Mouse melanoma cells (B16F10) were maintained in RPMI-1640 medium. All media were supplemented with 10% fetal bovine serum and 1% penicillin-streptomycin (Life Technologies, Carlsbad, CA, USA) and maintained at 37 °C in a humidified atmosphere with 5% CO2.
The cytotoxicity of the test compounds was evaluated against MCF-7, A549, HeLa, MDA-MB-231, A375, and B16F10 using the CCK-8 assay. Cells were seeded into 96-well plates at a density of 5000 cells/well. After removing the medium, 100 μL of medium with 0.1% DMSO containing test compounds at different concentrations was added to each well and incubated at 37 °C for another 48 h. The CCK-8 solution was added and incubated for another 1 h, and then, the absorbance was detected with a microplate reader at a wavelength of 450 nm. The IC50 values were calculated by nonlinear regression analysis using GraphPad Prism 8.0.2. All the experiments were repeated at least three times.

MCF-7 cells [3] = assay: Wound healing assay; format: cell-based, human; settings: 0.1, 1, 10 μM, 24 h, vs untreated control
Experimental: as §1
MCF-7 cells were seeded and incubated in a 6-well plate overnight. Scratches were made in confluent monolayers with a 200 μL pipette tip. Then, wounds were washed twice with media to remove debris and uprooted cells. Cells were treated with various concentrations (0, 0.1, 1, and 10 μM) of compound 3g. Images were obtained using phase contrast microscopy at 0 and 24 h. The migration distance of cells in the wound area was quantified using ImageJ.
Figure 4 Effect of compound 3g on the migration of MCF-7 breast cancer cells. (A) 3g inhibited the migration of MCF-7 cells at different concentrations in a dose-dependent manner. Representative images of wound healing were captured by an inverted microscope at 0 h and 24 h treatment. Scale bar = 200 μm. (B) Wound closure percentages in the different groups after treatment with 3g for 24 h. (C) Results of the transwell migration assay. Representative images of the stained migrated cells after incubation with 3g at different concentrations for 48 h. Scale bar = 200 μm. Data are presented as the mean ± SD of three independent experiments. Bar values represent the standard deviation SD. ** p < 0.01, and *** p < 0.001 (one-way ANOVA).

[4] = system: microtubule network in MCF-7 cells; assay: Immunofluorescence staining of microtubules; format: cell-based, human; settings: 0.1, 1 and 10 μM, 24 h
Experimental: Given the potent in vitro antiproliferative activity of compound 3g, its effects on microtubule organization were further investigated using immunofluorescence staining in MCF-7 cells. […] The network appeared disassembled and fragmented in a dose-dependent manner, indicating significant cytoskeletal destabilization.
MCF-7 cells were seeded on glass coverslips in 24-well plates and then treated with vehicle control 0.1% DMSO, 3g (0.1, 1, 10 μM) for 24 h. The cells were fixed with 4% paraformaldehyde and then permeabilized with PBS containing 0.2% Triton X-100. After blocking for 30 min by adding 100 μL of goat serum albumin at room temperature, cells were incubated with a β-tubulin polyclonal antibody (Proteintech, Wuhan Sanying Biotechnology, Wuhan, China, Cat# 10094-1-AP, 1:500 dilution) at 37 °C for 12 h. Then, the cells were washed three times with PBS and incubated with a secondary antibody (Beyotime, Shanghai, China, Cat# A0516, 1:500 dilution) for 1 h at room temperature. Nuclei were labeled with 4,6-diamidino-2-phenylindole (DAPI). Cells were finally visualized using a fluorescence microscope (Nikon TI2-E+A1R, Nikon Corporation, Tokyo, Japan).
Figure 5 Effects of compound 3g on microtubules. MCF-7 cells were treated with vehicle control 0.1% DMSO, compound 3g (0.1μM, 1μM, and 10 μM for 24 h). […]

`COc1cc(-n2ccc3ccc(-c4ccc(C)c(C#N)c4)cc32)cc(OC)c1OC` [3g, 2-methyl-5-(1-(3,4,5-trimethoxyphenyl)-1H-indol-6-yl)benzonitrile] was tested, and the “clonogenic survival / colony formation” value (MCF-7 cells [1]; 0.1 μM) was “moderate reduction”, the colony formation (MCF-7 cells [1]; 1 μM) was “progressively greater inhibition” and the colony formation (MCF-7 cells [1]; 10 μM) was “near-complete suppression”. For the same compound, the “number of cells traversing the membrane” value (MCF-7 cells [2]) was “significant reduction”, the IC50 (A549 cells) was 6.3 ± 0.3 µM and the wound closure (MCF-7 cells [3]) was “markedly inhibited”. For the same compound, the microtubule architecture [4] was “progressive disruption”.

Reference: publication PMC12693167, “Design, Synthesis and Anticancer Activity of 6-Substituted-1-(3,4,5-trimethoxyphenyl)-1H-indole Against Tubulin Polymerisation” (Molecules, 2025)
